Counter-ions that a name gives are not always drawn.
test system: Acinetobacter baumannii ATCC17961; test: Antimicrobial susceptibility testing: 90% growth inhibitory concentration (IC90) determination; assay type: cell-based; conditions: Acinetobacter baumannii, ATCC17961, 16 h, 90% growth inhibitory concentration, Acinetobacter baumannii ATCC17961, Iso-Sensitest broth, OD 600 nm over 16 h; read-out: ATCC 17961 IC90
In short: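 A. baumannii ATCC17961 at ~5×10^5 CFU/ml in Iso-Sensitest broth exposed to 10-point twofold dilutions (e.g. 50–0.097 μM final), 35±2° C. OD600 read every 20 minutes over 16h; IC50 and IC90 derived from inhibition during logarithmic growth.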

SMILES | IC90 [nM]
Cc1nn(CC(=O)N2CCCCC2)cc1-c1ccc(-c2cnc(C(=O)Nc3ccc(C(=O)N4CCN(C(=O)C5CC[N+](C)(C)CC5)CC4)c(Cl)c3)n2C)c(F)c1F [Example G29, N-[3-chloro-4-[4-(1,1-dimethylpiperidin-1-ium-4-carbonyl)piperazine-1-carbonyl]phenyl]-5-[2,3-difluoro-4-[3-methyl-1-[2-oxo-2-(1-piperidyl)ethyl]pyrazol-4-yl]phenyl]-1-methyl-imidazole-2-carboxamide; formate] | 330
Cc1nn(CC(=O)Nc2ccc(C(=O)N3CC[N+](C)(C)CC3)cc2)cc1-c1ccc(-c2cnc(C(=O)Nc3ccc(C(=O)N4CCN(C(=O)C5CC[N+](C)(C)CC5)CC4)c(Cl)c3)n2C)c(F)c1F [Example G30, N-[3-chloro-4-[4-(1,1-dimethylpiperidin-1-ium-4-carbonyl)piperazine-1-carbonyl]phenyl]-5-[4-[1-[2-[4-(4,4-dimethylpiperazin-4-ium-1-carbonyl)anilino]-2-oxo-ethyl]-3-methyl-pyrazol-4-yl]-2,3-difluoro-phenyl]-1-methyl-imidazole-2-carboxamide; diformate] | 1000
Cc1nn(CC(=O)Nc2ccc(F)nn2)cc1-c1ccc(-c2cnc(C(=O)Nc3ccc(C(=O)N4CCN(C(=O)C5CC[N+](C)(C)CC5)CC4)c(Cl)c3)n2C)c(F)c1F [Example G31, N-[3-chloro-4-[4-(1,1-dimethylpiperidin-1-ium-4-carbonyl)piperazine-1-carbonyl]phenyl]-5-[2,3-difluoro-4-[1-[2-[(6-fluoropyridazin-3-yl)amino]-2-oxo-ethyl]-3-methyl-pyrazol-4-yl]phenyl]-1-methyl-imidazole-2-carboxamide; formate] | 140
Cc1nn(CC(=O)Nc2ccnnc2)cc1-c1ccc(-c2cnc(C(=O)Nc3ccc(C(=O)N4CCN(C(=O)C5CC[N+](C)(C)CC5)CC4)c(Cl)c3)n2C)c(F)c1F [Example G33, N-[3-chloro-4-[4-(1,1-dimethylpiperidin-1-ium-4-carbonyl)piperazine-1-carbonyl]phenyl]-5-[2,3-difluoro-4-[3-methyl-1-[2-oxo-2-(pyridazin-4-ylamino)ethyl]pyrazol-4-yl]phenyl]-1-methyl-imidazole-2-carboxamide; formate] | 440
Cc1nn(CC(=O)Nc2ccc(C#N)nc2)cc1-c1ccc(-c2cnc(C(=O)Nc3ccc(C(=O)N4CCN(C(=O)C5CC[N+](C)(C)CC5)CC4)c(Cl)c3)n2C)c(F)c1F [Example G34, N-[3-chloro-4-[4-(1,1-dimethylpiperidin-1-ium-4-carbonyl)piperazine-1-carbonyl]phenyl]-5-[4-[1-[2-[(6-cyano-3-pyridyl)amino]-2-oxo-ethyl]-3-methyl-pyrazol-4-yl]-2,3-difluoro-phenyl]-1-methyl-imidazole-2-carboxamide; formate] | 68
Cc1c(-c2ccc(-c3cnc(C(=O)Nc4ccc(C(=O)N5CCN(C(=O)C6CC[N+](C)(C)CC6)CC5)c(Cl)c4)n3C)c(F)c2F)cnn1CCNC(=O)c1ccccn1 [Example H1, N-[2-[4-[4-[2-[[3-chloro-4-[4-(1,1-dimethylpiperidin-1-ium-4-carbonyl)piperazine-1-carbonyl]phenyl]carbamoyl]-3-methyl-imidazol-4-yl]-2,3-difluoro-phenyl]-5-methyl-pyrazol-1-yl]ethyl]pyridine-2-carboxamide formate] | 150
Cc1nn(CCNC(=O)c2ccccn2)cc1-c1ccc(-c2cnc(C(=O)Nc3ccc(C(=O)N4CCN(C(=O)C5CC[N+](C)(C)CC5)CC4)c(Cl)c3)n2C)c(F)c1F [Example H2, N-[2-[4-[4-[2-[[3-chloro-4-[4-(1,1-dimethylpiperidin-1-ium-4-carbonyl)piperazine-1-carbonyl]phenyl]carbamoyl]-3-methyl-imidazol-4-yl]-2,3-difluoro-phenyl]-3-methyl-pyrazol-1-yl]ethyl]pyridine-2-carboxamide; formate] | 190
Cc1nn(CCNS(=O)(=O)c2ccc(F)cc2)cc1-c1ccc(-c2cnc(C(=O)Nc3ccc(C(=O)N4CCN(C(=O)C5CC[N+](C)(C)CC5)CC4)c(Cl)c3)n2C)c(F)c1F [Example H3, N-[3-chloro-4-[4-(1,1-dimethylpiperidin-1-ium-4-carbonyl)piperazine-1-carbonyl]phenyl]-5-[2,3-difluoro-4-[1-[2-[(4-fluorophenyl)sulfonylamino]ethyl]-3-methyl-pyrazol-4-yl]phenyl]-1-methyl-imidazole-2-carboxamide; formate] | 180
Cc1c(-c2ccc(-c3cnc(C(=O)Nc4ccc(C(=O)N5CCN(C(=O)C6CC[N+](C)(C)CC6)CC5)c(Cl)c4)n3C)c(F)c2F)cnn1CCNC(=O)NC(C)(C)C [Example H4, 5-[4-[1-[2-(tert-butylcarbamoylamino)ethyl]-5-methyl-pyrazol-4-yl]-2,3-difluoro-phenyl]-N-[3-chloro-4-[4-(1,1-dimethylpiperidin-1-ium-4-carbonyl)piperazine-1-carbonyl]phenyl]-1-methyl-imidazole-2-carboxamide; formate] | 160
Cc1nn(CCNC(=O)NC(C)(C)C)cc1-c1ccc(-c2cnc(C(=O)Nc3ccc(C(=O)N4CCN(C(=O)C5CC[N+](C)(C)CC5)CC4)c(Cl)c3)n2C)c(F)c1F [Example H5, 5-[4-[1-[2-(tert-butylcarbamoylamino)ethyl]-3-methyl-pyrazol-4-yl]-2,3-difluoro-phenyl]-N-[3-chloro-4-[4-(1,1-dimethylpiperidin-1-ium-4-carbonyl)piperazine-1-carbonyl]phenyl]-1-methyl-imidazole-2-carboxamide; formate] | 170
Cc1c(-c2ccc(-c3cnc(C(=O)Nc4ccc(C(=O)N5CCN(C(=O)C6CC[N+](C)(C)CC6)CC5)c(Cl)c4)n3C)c(F)c2F)cnn1CCNC(=O)Nc1ccccn1 [Example H6, N-[3-chloro-4-[4-(1,1-dimethylpiperidin-1-ium-4-carbonyl)piperazine-1-carbonyl]phenyl]-5-[2,3-difluoro-4-[5-methyl-1-[2-(2-pyridylcarbamoylamino)ethyl]pyrazol-4-yl]phenyl]-1-methyl-imidazole-2-carboxamide; formate] | 170
Cc1nn(CCNC(=O)Nc2ccccn2)cc1-c1ccc(-c2cnc(C(=O)Nc3ccc(C(=O)N4CCN(C(=O)C5CC[N+](C)(C)CC5)CC4)c(Cl)c3)n2C)c(F)c1F [Example H7, N-[3-chloro-4-[4-(1,1-dimethylpiperidin-1-ium-4-carbonyl)piperazine-1-carbonyl]phenyl]-5-[2,3-difluoro-4-[3-methyl-1-[2-(2-pyridylcarbamoylamino)ethyl]pyrazol-4-yl]phenyl]-1-methyl-imidazole-2-carboxamide; formate] | 190
Cc1nn(CCNC(=O)N2CCCC2)cc1-c1ccc(-c2cnc(C(=O)Nc3ccc(C(=O)N4CCN(C(=O)C5CC[N+](C)(C)CC5)CC4)c(Cl)c3)n2C)c(F)c1F [Example H8, N-[3-chloro-4-[4-(1,1-dimethylpiperidin-1-ium-4-carbonyl)piperazine-1-carbonyl]phenyl]-5-[2,3-difluoro-4-[3-methyl-1-[2-(pyrrolidine-1-carbonylamino)ethyl]pyrazol-4-yl]phenyl]-1-methyl-imidazole-2-carboxamide; formate] | 540
COc1ccccc1-c1[nH]ncc1-c1ccc(-c2cnc(C(=O)Nc3ccc(C(=O)N4CCN(C(=O)C5CC[N+](C)(C)CC5)CC4)c(Cl)c3)n2C)c(F)c1F [Example I4, N-[3-chloro-4-[4-(1,1-dimethylpiperidin-1-ium-4-carbonyl)piperazine-1-carbonyl]phenyl]-5-[2,3-difluoro-4-[5-(2-methoxyphenyl)-1H-pyrazol-4-yl]phenyl]-1-methyl-imidazole-2-carboxamide; formate] | 1500
Cn1c(-c2ccc(-c3cn[nH]c3C3CCOCC3)c(F)c2F)cnc1C(=O)Nc1ccc(C(=O)N2CCN(C(=O)C3CC[N+](C)(C)CC3)CC2)c(Cl)c1 [Example I6, N-[3-chloro-4-[4-(1,1-dimethylpiperidin-1-ium-4-carbonyl)piperazine-1-carbonyl]phenyl]-5-[2,3-difluoro-4-(5-tetrahydropyran-4-yl-1H-pyrazol-4-yl)phenyl]-1-methyl-imidazole-2-carboxamide; formate] | 820
Cn1c(-c2ccc(-c3cn[nH]c3C3=CCOCC3)c(F)c2F)cnc1C(=O)Nc1ccc(C(=O)N2CCN(C(=O)C3CC[N+](C)(C)CC3)CC2)c(Cl)c1 [Example I7, N-[3-chloro-4-[4-(1,1-dimethylpiperidin-1-ium-4-carbonyl)piperazine-1-carbonyl]phenyl]-5-[4-[5-(3,6-dihydro-2H-pyran-4-yl)-1H-pyrazol-4-yl]-2,3-difluoro-phenyl]-1-methyl-imidazole-2-carboxamide;formate] | 760
Cc1n[nH]cc1-c1ccc(-c2cnc(C(=O)Nc3ccc(C(=O)N4CCN(C(=O)C5CC[N+](C)(CC6CNC6)CC5)CC4)c(Cl)c3)n2C)c(F)c1F (stereo not drawn) [Example J1, N-[4-[4-[1-(azetidin-3-ylmethyl)-1-methyl-piperidin-1-ium-4-carbonyl]piperazine-1-carbonyl]-3-chloro-phenyl]-5-[2,3-difluoro-4-(3-methyl-1H-pyrazol-4-yl)phenyl]-1-methyl-imidazole-2-carboxamide; formate] | 22
Cc1nn(CCOCCN)c(C)c1-c1ccc(-c2cnc(C(=O)Nc3ccc(C(=O)N4CCN(C(=O)[C@@H]5C[C@@H](O)C[N+]5(C)C)CC4)c(Cl)c3)n2C)c(F)c1F [Example K1, 5-[4-[1-[2-(2-aminoethoxy)ethyl]-3,5-dimethyl-pyrazol-4-yl]-2,3-difluoro-phenyl]-N-[3-chloro-4-[4-[(2S,4R)-4-hydroxy-1,1-dimethyl-pyrrolidin-1-ium-2-carbonyl]piperazine-1-carbonyl]phenyl]-1-methyl-imidazole-2-carboxamide; 2,2,2-trifluoroacetate] | 600

From patent publication US12421211B2, “Heterocyclic compounds” (Hoffmann-La Roche Inc., priority 2021, dated 2025)
